In ChEMBL document CHEMBL4673209, “Discovery of a novel potent GPR40 full agonist” (Bioorg Med Chem Lett, 2018):
Calls of active or inactive are those of the source. The calls are words filed in the database; no cut-off is given here.

Tests used:
[1] = molecular target: T1, Free fatty acid receptor 1 (Homo sapiens, UniProt O14842); assay: Agonist activity at human GPR40 transfected in HEK293 cells assessed as increase in intracellular calcium level incubated for 1 hr by Fluo-8 dye based fluorescence analysis; format: functional, cell-based
T1 sequence (O14842 whole entry): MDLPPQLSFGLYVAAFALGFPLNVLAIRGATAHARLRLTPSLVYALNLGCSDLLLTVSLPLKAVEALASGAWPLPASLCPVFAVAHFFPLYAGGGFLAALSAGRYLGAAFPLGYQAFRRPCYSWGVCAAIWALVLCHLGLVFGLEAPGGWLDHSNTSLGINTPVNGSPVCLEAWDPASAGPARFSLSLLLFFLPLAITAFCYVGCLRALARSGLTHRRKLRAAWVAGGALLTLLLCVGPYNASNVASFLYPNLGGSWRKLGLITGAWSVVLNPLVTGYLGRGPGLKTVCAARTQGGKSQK

[2] = molecular target: T1, Free fatty acid receptor 1; assay: Agonist activity at GPR40 in human islets assessed as induction of glucose-stimulated insulin secretion at 10 uM; format: tissue-based; settings: Pancreatic islet
[3] = molecular target: Free fatty acid receptor 1 (Rattus norvegicus, UniProt Q8K3T4); assay: Agonist activity at rat GPR40 transfected in HEK293 cells assessed as increase in intracellular calcium level incubated for 1 hr by Fluo-8 dye based fluorescence analysis; format: functional, cell-based
Free fatty acid receptor 1 (Rattus norvegicus, UniProt Q8K3T4), sequence (Q8K3T4 whole entry): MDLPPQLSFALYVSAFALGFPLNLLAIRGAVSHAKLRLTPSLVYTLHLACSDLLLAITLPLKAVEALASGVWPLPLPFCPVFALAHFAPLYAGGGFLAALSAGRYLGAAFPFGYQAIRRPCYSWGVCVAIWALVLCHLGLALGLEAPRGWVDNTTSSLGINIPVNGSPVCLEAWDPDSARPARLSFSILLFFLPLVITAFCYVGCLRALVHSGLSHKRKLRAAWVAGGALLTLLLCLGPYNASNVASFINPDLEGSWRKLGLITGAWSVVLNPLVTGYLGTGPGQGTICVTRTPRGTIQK

[4] = molecular target: Free fatty acid receptor 1 (Rattus norvegicus) (UniProt Q8K3T4); assay: Agonist activity at GPR40 in rat INS1 (832/13) cells assessed as induction of glucose-stimulated insulin secretion in presence of 10 mM glucose; format: cell-based
Free fatty acid receptor 1 (Rattus norvegicus), sequence (Q8K3T4 whole entry): as above

Mus musculus [5] = organism: Mus musculus; assay: Anti-glycemic activity in C57 mouse assessed as reduction in blood glucose excursion measured for 120 mins by IPGTT; format: functional, organism-based
Mus musculus [6] = assay: In vivo agonist activity at GPR119 in C57 mouse assessed as induction of GLP-1 secretion at 30 mg/kg; format: functional, organism-based
Mus musculus [7] = assay: In vivo agonist activity at GPR119 in GPR40 knock-out mouse assessed as induction of GLP-1 secretion at 30 mg/kg; format: functional, organism-based
Mus musculus [8] = assay: Induction of GLP-1 secretion in GPR40 knock-out mouse at 100 mg/kg; format: functional, organism-based
Rattus norvegicus [9] = assay: Anti-glycemic activity in fasted Sprague-Dawley ZDF rat assessed as increase in insulin secretion by measuring insulin level in plasma at 3 mg/kg administered 30 mins prior to glucose challenge measured after 140 mins by OGTT; format: functional; settings: time 170 min, 2.833 h
Rattus norvegicus [10] = assay: Anti-glycemic activity in fasted Sprague-Dawley ZDF rat assessed as reduction in post-prandial hyperglycemia by measuring AUC(0 to 2 hrs) for blood glucose at 3 mg/kg administered daily for 8 days and measured on day 8 by OGTT; format: functional; settings: time 8 day
Rattus norvegicus [11] = assay: Anti-glycemic activity in fasted Sprague-Dawley ZDF rat assessed as reduction in post-prandial hyperglycemia by measuring AUC(0 to 2 hrs) for blood glucose at 10 mg/kg administered daily for 8 days and measured on day 8 by OGTT; format: functional; settings: time 8 day
Rattus norvegicus [12] = assay: Anti-glycemic activity in fasted Sprague-Dawley ZDF rat assessed as increase in insulin secretion by measuring insulin level in plasma at 10 mg/kg administered 30 mins prior to glucose challenge measured after 140 mins by OGTT; format: functional; settings: time 170 min, 2.833 h
Rattus norvegicus [13] = assay: Anti-glycemic activity in fasted Sprague-Dawley ZDF rat assessed as reduction in post-prandial hyperglycemia by measuring AUC(0 to 2 hrs) for blood glucose at 3 mg/kg administered for 1 day and measured on day 1 by OGTT; format: functional
Mus musculus [14] = assay: In vivo agonist activity at GPR40 in C57 mouse assessed as induction of GLP1 secretion at 100 mg/kg; format: functional, organism-based
Mus musculus [15] = organism: Mus musculus; assay: Anti-glycemic activity in GPR40 knockout mouse assessed as reduction in blood glucose excursion measured for 120 mins by IPGTT; format: functional, organism-based
Rattus norvegicus [16] = assay: Anti-glycemic activity in fasted Sprague-Dawley ZDF rat assessed as reduction in post-prandial hyperglycemia by measuring AUC(0 to 2 hrs) for blood glucose at 10 mg/kg administered for 1 day and measured on day 1 by OGTT; format: functional

SMILES | EC50 [1] | EC50 [3] | also measured
COc1ccc(F)c(-c2ncc(COc3cccc([C@@H](CC(=O)O)C4CC4)c3)nc2-c2cc(C)cc(C)c2)c1 | 7.5 nM |  | 
COc1ccc(F)c(-c2ccc(COc3cccc([C@@H](CC(=O)O)C4CC4)c3)cc2C2=CCCC2(C)C)c1 | 3.5 nM | 11.4 nM | Activity ([2]; filed as agonist): Active; Activity ([4]; INS-1 832/13, filed as agonist): Active
COc1ccc(F)c(-c2ccc(COc3cccc([C@@H](CC(=O)O)C4CC4)c3)nc2C2=CCCC2(C)C)c1 | 9.4 nM | 44.7 nM | 
COc1ccc(F)c(-c2cnc(COc3cccc([C@@H](CC(=O)O)C4CC4)c3)nc2C2=CCCC2(C)C)c1 | 12.4 nM | 70.1 nM | 
COc1ccc(F)c(-c2cnc(COc3cccc([C@@H](CC(=O)O)C4CC4)c3)cc2C2=CCCC2(C)C)c1 | 11 nM | 46 nM | 
COc1ccc(F)c(-c2ncc(COc3cccc([C@@H](CC(=O)O)C4CC4)c3)nc2C2=CCCC2(C)C)c1 |  | 201 nM | 
COc1cc(-c2ncc(COc3cccc([C@@H](CC(=O)O)C4CC4)c3)nc2C2=CCCC2(C)C)c(F)cn1 | 11 nM |  | 
COc1ccc(Cl)cc1C(=O)NCCc1ccc(S(=O)(=O)NC(=O)NC2CCCCC2)cc1 |  |  | Activity (Mus musculus [5]): Active
COc1ccc(F)c(-c2ncc(COc3cccc([C@@H](CC(=O)O)C4CC4)c3)nc2N2CC3(CCC3)C2)c1 | 4.5 nM |  | 
CC(C)OC(=O)N1CCC(Oc2ncnc3c2CCN3c2ccc(S(C)(=O)=O)cc2F)CC1 |  |  | Activity (Mus musculus [6]): Active; Activity (Mus musculus [7]): Active
Cc1cc(OCCCS(C)(=O)=O)cc(C)c1-c1cccc(COc2ccc3c(c2)OC[C@H]3CC(=O)O)c1 [FASIGLIFAM] |  |  | Activity (Mus musculus [8]): inactive; Activity (Mus musculus [5]): Active; Activity (Rattus norvegicus [9]): 4020 ng/mL; Activity (Rattus norvegicus [10]): 20561 ng/mL.hr; Activity [2]: inactive; Activity (Rattus norvegicus [11]): 135502 ng/mL.hr; Activity (Rattus norvegicus [12]): 19250 ng/mL; Activity ([4]; INS-1 832/13): inactive; Activity (Rattus norvegicus [13]): 12194 ng/mL.hr; Activity (Mus musculus [14]): inactive; Activity (Mus musculus [15]): inactive; Activity (Rattus norvegicus [16]): 59293 ng/mL.hr
COc1ccc(F)c(-c2ncc(COc3cccc([C@@H](CC(=O)O)C4CC4)c3)nc2OCC(C)C)c1 | 9.6 nM |  | 
COc1ccc(F)c(-c2ncc(COc3cccc([C@@H](CC(=O)O)C4CC4)c3)nc2CC(C)(C)C)c1 |  |  | EC50 ([1]; hek293): 2 nM
CCCCc1nc(COc2cccc([C@@H](CC(=O)O)C3CC3)c2)cnc1-c1cc(OC)ccc1F | 2.5 nM | 28 nM | 
COc1ccc(F)c(-c2ncc(COc3cccc([C@@H](CC(=O)O)C4CC4)c3)nc2C=C(C)C)c1 | 9.4 nM |  | 
COc1ccc(F)c(-c2ncc(COc3cccc([C@@H](CC(=O)O)C4CC4)c3)cc2C2=CCCC2(C)C)c1 | 21.3 nM | 64.4 nM | 
